Test results taken from patent US8106055B2, “Substituted amide compounds” (Gruenenthal GmbH, priority 2007, dated 2012).

What follows are molecules tested against T1, human μ opiate receptor (Homo sapiens, UniProt P35372) (assay: Affinity for the human μ opiate receptor ([3H]-naloxone displacement, CHO-K1 receptor membrane preparation, SPA)). Conditions: test concentration of 1 μM.
T1 construct: purchased PerkinElmer Life Sciences, Zaventem, Belgium RB-HOM; host or cells: CHO-K1 cells (membrane preparation)
T1 sequence (P35372 whole entry): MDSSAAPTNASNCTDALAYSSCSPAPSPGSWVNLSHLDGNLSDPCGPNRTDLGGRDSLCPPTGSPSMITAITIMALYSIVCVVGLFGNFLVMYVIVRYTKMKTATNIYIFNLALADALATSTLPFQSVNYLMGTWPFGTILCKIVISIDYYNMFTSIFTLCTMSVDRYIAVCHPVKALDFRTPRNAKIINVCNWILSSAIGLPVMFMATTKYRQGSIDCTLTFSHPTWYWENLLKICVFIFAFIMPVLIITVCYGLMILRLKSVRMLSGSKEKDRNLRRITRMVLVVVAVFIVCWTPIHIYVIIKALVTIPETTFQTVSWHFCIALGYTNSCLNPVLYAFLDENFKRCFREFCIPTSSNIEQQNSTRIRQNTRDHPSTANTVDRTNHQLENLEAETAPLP
Type: binding
Method in brief: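 Displacement of 1 nmol/l [3H]-naloxone measured by SPA counting after 90 min at room temperature, using human μ receptor CHO-K1 membrane preparation in Tris-HCl buffer with 0.06% BSA. Test substances at 1 μmol/l give % inhibition; dilution series yield IC50, then Ki (Cheng-Prusoff); non-specific binding with 100 μmol/l naloxone.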
For `CN(C)C(c1ccccc1)C1CCC(CNC(=O)COCC2CCCN(S(=O)(=O)c3ccccc3)C2)CC1` (centres unmarked) [Example 129, N((4((dimethylamino)(phenyl)methyl)cyclohexyl)methyl)-2-((1-(phenylsulfonyl)piperidin-3-yl)methoxy)acetamide], the “μ (binding on the μ opioid receptor, % inhibition)” value was 89%.
`Cc1ccc(S(=O)(=O)N(C)CCOCC(=O)NC2CCC(C(c3cccs3)N(C)C)CC2)cc1` (centres unmarked) [Example 168, N-(4-((dimethylamino) (thiophen-2-yl)methyl)cyclohexyl)-2-(2-(N,4-dimethylphenylsulfamido)ethoxy)acetamide] was tested, and the “μ (binding on the μ opioid receptor, % inhibition)” value was 83%.
`COc1cc(C)c(S(=O)(=O)N(CCOCC(=O)NCC2CCC(C(c3ccccc3)N(C)C)CC2)Cc2ccccc2)c(C)c1C` (centres unmarked) [Example 201] was tested, and the “μ (binding on the μ opioid receptor, % inhibition)” value was 88%.
For `CN(C)C(c1cccc(F)c1)C1CCC(CCNC(=O)COCC2CCCN2S(=O)(=O)c2ccc(Cl)c(Cl)c2)CC1` (centres unmarked) [Example 202], the “μ (binding on the μ opioid receptor, % inhibition)” value was 85%.
For `COc1ccc(S(=O)(=O)N2CCCCC2CCOCC(=O)NCC2CCC(C(c3cccc(F)c3)N(C)C)CC2)cc1` (centres unmarked) [Example 203], the “μ (binding on the μ opioid receptor, % inhibition)” value was 83%.
`CN(C)C(c1cccc(F)c1)C1CCC(NC(=O)COC2CCN(S(=O)(=O)c3ccc(Cl)cc3)C2)CC1` (centres unmarked) [Example 204] was tested, and the “μ (binding on the μ opioid receptor, % inhibition)” value was 81%.
For `CN(C)C(c1cccc(F)c1)C1CCC(NC(=O)COCCN(C)S(=O)(=O)c2ccc(F)cc2)CC1` (centres unmarked) [Example 205], the “μ (binding on the μ opioid receptor, % inhibition)” value was 76%.
For `COc1ccc(S(=O)(=O)N(C)CCOCC(=O)NC2CCC(C(c3cccs3)N(C)C)CC2)cc1OC` (centres unmarked) [Example 206], the “μ (binding on the μ opioid receptor, % inhibition)” value was 78%.
`CN(C)C(c1ccc(Cl)cc1)C1CCC(CNC(=O)COCCN(C)S(=O)(=O)c2c(Cl)cccc2Cl)CC1` (centres unmarked) [Example 207] was tested, and the “μ (binding on the μ opioid receptor, % inhibition)” value was 77%.
`CN(C)C(c1cccc(F)c1)C1CCC(NC(=O)COCCN(C)S(=O)(=O)c2c(Cl)cc(Cl)cc2Cl)CC1` (centres unmarked) [Example 208] was tested, and the “μ (binding on the μ opioid receptor, % inhibition)” value was 79%.
In the case of `CCN(CCOCC(=O)NCCC1CCC(C(c2cccc(F)c2)N(C)C)CC1)S(=O)(=O)c1c(C)cc(OC)c(C)c1C` (centres unmarked) [Example 209], the “μ (binding on the μ opioid receptor, % inhibition)” value is reported as 85%.
In the case of `CN(C)C(c1cccc(F)c1)C1CCC(NC(=O)COCC2CCCN2S(=O)(=O)c2ccc(Cl)c(Cl)c2)CC1` (centres unmarked) [Example 211], the “μ (binding on the μ opioid receptor, % inhibition)” value is reported as 83%.
In the case of `COc1ccc(S(=O)(=O)N2CCCCC2CCOCC(=O)NC2CCC(C(c3ccc(F)cc3)N(C)C)CC2)cc1` (centres unmarked) [Example 212], the “μ (binding on the μ opioid receptor, % inhibition)” value is reported as 80%.
With `COc1ccc(S(=O)(=O)N2CCCCC2CCOCC(=O)NCCC2CCC(C(c3cccc(F)c3)N(C)C)CC2)cc1` (centres unmarked) [Example 213] the “μ (binding on the μ opioid receptor, % inhibition)” value was 87%.
`CN(C)C(c1cccs1)C1CCC(CCNC(=O)COC2CCCCC2N(C)S(=O)(=O)c2ccc(Cl)c(Cl)c2)CC1` (centres unmarked) [Example 214] was tested, and the “μ (binding on the μ opioid receptor, % inhibition)” value was 85%.
In the case of `CN(C)C(c1cccc(F)c1)C1CCC(CCNC(=O)COCCN(C)S(=O)(=O)c2ccc(OC(F)(F)F)cc2)CC1` (centres unmarked) [Example 215], the “μ (binding on the μ opioid receptor, % inhibition)” value is reported as 85%.
`Cc1ccc(S(=O)(=O)N2CCC(OCC(=O)NCCC3CCC(C(c4cccc(F)c4)N(C)C)CC3)C2)cc1` (centres unmarked) [Example 216] was tested, and the “μ (binding on the μ opioid receptor, % inhibition)” value was 72%.
`CN(C)C(c1cccc(F)c1)C1CCC(NC(=O)COCCN(C)S(=O)(=O)c2ccc(Cl)cc2Cl)CC1` (centres unmarked) [Example 217] was tested, and the “μ (binding on the μ opioid receptor, % inhibition)” value was 89%.
With `CN(C)C(c1cccc(F)c1)C1CCC(CCNC(=O)COCCN(C)S(=O)(=O)c2ccc(F)cc2)CC1` (centres unmarked) [Example 218] the “μ (binding on the μ opioid receptor, % inhibition)” value was 82%.
For `CN(C)C(c1ccccc1)C1CCC(CNC(=O)COC2CCN(S(=O)(=O)c3ccc(F)cc3)C2)CC1` (centres unmarked) [Example 219], the “μ (binding on the μ opioid receptor, % inhibition)” value was 82%.
With `CN(C)C(c1cccc(F)c1)C1CCC(CNC(=O)COCC2CCCN(S(=O)(=O)c3ccccc3)C2)CC1` (centres unmarked) [Example 220] the “μ (binding on the μ opioid receptor, % inhibition)” value was 73%.
In the case of `COc1cc(C)c(S(=O)(=O)N2CCCC(OCC(=O)NCCC3CCC(C(c4cccc(F)c4)N(C)C)CC3)C2)c(C)c1C` (centres unmarked) [Example 221], the “μ (binding on the μ opioid receptor, % inhibition)” value is reported as 82%.
`COc1cc(C)c(S(=O)(=O)N2CCN(CCOCC(=O)NC3CCC(C(c4ccc(F)cc4)N(C)C)CC3)CC2)c(C)c1C` (centres unmarked) [Example 222] was tested, and the “μ (binding on the μ opioid receptor, % inhibition)” value was 77%.
For `COc1cc(C)c(S(=O)(=O)N2CCN(CCOCC(=O)NCC3CCC(C(c4cccc(F)c4)N(C)C)CC3)CC2)c(C)c1C` (centres unmarked) [Example 223], the “μ (binding on the μ opioid receptor, % inhibition)” value was 77%.
For `COc1ccc(S(=O)(=O)N2CCCC2COCC(=O)NCCC2CCC(C(c3cccc(F)c3)N(C)C)CC2)cc1` (centres unmarked) [Example 224], the “μ (binding on the μ opioid receptor, % inhibition)” value was 85%.
With `CN(C)C(c1cccc(F)c1)C1CCC(CNC(=O)COC2CCN(S(=O)(=O)c3ccc(Cl)cc3Cl)C2)CC1` (centres unmarked) [Example 225] the “μ (binding on the μ opioid receptor, % inhibition)” value was 83%.
`Cc1ccc(S(=O)(=O)N(C)CCOCC(=O)NC2CCC(C(c3cccc(F)c3)N(C)C)CC2)cc1` (centres unmarked) [Example 226] was tested, and the “μ (binding on the μ opioid receptor, % inhibition)” value was 74%.
In the case of `Cc1ccc(S(=O)(=O)N(C)CCOCC(=O)NCC2CCC(C(c3cccc(F)c3)N(C)C)CC2)cc1` (centres unmarked) [Example 227], the “μ (binding on the μ opioid receptor, % inhibition)” value is reported as 77%.
In the case of `COc1cc(C)c(S(=O)(=O)N(C)CCOCC(=O)NC2CCC(C(c3cccc(F)c3)N(C)C)CC2)c(C)c1` (centres unmarked) [Example 228], the “μ (binding on the μ opioid receptor, % inhibition)” value is reported as 76%.
In the case of `CN(C)C(c1cccc(F)c1)C1CCC(CNC(=O)COCCN(C)S(=O)(=O)c2ccc(F)cc2)CC1` (centres unmarked) [Example 229], the “μ (binding on the μ opioid receptor, % inhibition)” value is reported as 79%.
In the case of `CN(C)C(c1cccs1)C1CCC(CCNC(=O)COC2CCN(S(=O)(=O)c3ccccc3)CC2)CC1` (centres unmarked) [Example 230], the “μ (binding on the μ opioid receptor, % inhibition)” value is reported as 82%.
`CCN(CCOCC(=O)NCC1CCC(C(c2ccccc2)N(C)C)CC1)S(=O)(=O)c1c(C)cc(OC)c(C)c1C` (centres unmarked) [Example 231] was tested, and the “μ (binding on the μ opioid receptor, % inhibition)” value was 82%.
In the case of `COc1cc(C)c(S(=O)(=O)N2CCC(OCC(=O)NCCC3CCC(C(c4cccc(F)c4)N(C)C)CC3)CC2)c(C)c1C` (centres unmarked) [Example 232], the “μ (binding on the μ opioid receptor, % inhibition)” value is reported as 78%.
For `COc1ccc(S(=O)(=O)N2Cc3ccccc3CC2COCC(=O)NC2CCC(C(c3ccc(F)cc3)N(C)C)CC2)cc1` (centres unmarked) [Example 234], the “μ (binding on the μ opioid receptor, % inhibition)” value was 76%.
`Cc1cc(C)c(S(=O)(=O)N(C)CCOCC(=O)NC2CCC(C(c3cccs3)N(C)C)CC2)c(C)c1` (centres unmarked) [Example 235] was tested, and the “μ (binding on the μ opioid receptor, % inhibition)” value was 76%.
For `COc1cc(C)c(S(=O)(=O)N(C)CCOCC(=O)NC2CCC(C(c3ccccc3)N(C)C)CC2)c(C)c1` (centres unmarked) [Example 239], the “μ (binding on the μ opioid receptor, % inhibition)” value was 38%.
`Cc1ccc(S(=O)(=O)N(C)CCOCC(=O)NCCC2CCC(C(c3cccc(F)c3)N(C)C)CC2)cc1` (centres unmarked) [Example 240] was tested, and the “μ (binding on the μ opioid receptor, % inhibition)” value was 74%.
With `CN(C)C(c1ccc(Cl)cc1)C1CCC(CCNC(=O)COCCN(C)S(=O)(=O)c2ccc(F)cc2)CC1` (centres unmarked) [Example 241] the “μ (binding on the μ opioid receptor, % inhibition)” value was 67%.
`COc1ccc(S(=O)(=O)N(C)CCOCC(=O)NCC2CCC(C(c3ccccc3)N(C)C)CC2)cc1` (centres unmarked) [Example 242] was tested, and the “μ (binding on the μ opioid receptor, % inhibition)” value was 77%.
`COc1ccc(S(=O)(=O)N2CCCCC2COCC(=O)NC2CCC(C(c3cccs3)N(C)C)CC2)cc1` (centres unmarked) [Example 243] was tested, and the “μ (binding on the μ opioid receptor, % inhibition)” value was 79%.
With `CN(C)C(c1ccc(F)cc1)C1CCC(CCNC(=O)COC2CCCCC2N(C)S(=O)(=O)c2ccc(Cl)c(Cl)c2)CC1` (centres unmarked) [Example 244] the “μ (binding on the μ opioid receptor, % inhibition)” value was 81%.
For `CN(C)C(c1cccc(F)c1)C1CCC(NC(=O)COCCN(C)S(=O)(=O)c2ccc(OC(F)(F)F)cc2)CC1` (centres unmarked) [Example 246], the “μ (binding on the μ opioid receptor, % inhibition)” value was 76%.
In the case of `CN(C)C(c1cccc(F)c1)C1CCC(CCNC(=O)COC2CCN(S(=O)(=O)c3ccc(Cl)cc3)C2)CC1` (centres unmarked) [Example 247], the “μ (binding on the μ opioid receptor, % inhibition)” value is reported as 75%.
In the case of `COc1cc(C)c(S(=O)(=O)N(C)CCOCC(=O)NCC2CCC(C(c3cccc(F)c3)N(C)C)CC2)c(C)c1` (centres unmarked) [Example 248], the “μ (binding on the μ opioid receptor, % inhibition)” value is reported as 81%.
With `CN(C)C(c1ccc(F)cc1)C1CCC(CNC(=O)COCCN(C)S(=O)(=O)c2ccc(Cl)cc2Cl)CC1` (centres unmarked) [Example 249] the “μ (binding on the μ opioid receptor, % inhibition)” value was 70%.
With `COc1ccc(S(=O)(=O)N(C)CCOCC(=O)NC2CCC(C(c3cccc(F)c3)N(C)C)CC2)cc1` (centres unmarked) [Example 250] the “μ (binding on the μ opioid receptor, % inhibition)” value was 70%.
In the case of `COc1cc(C)c(S(=O)(=O)N2CCC(OCC(=O)NC3CCC(C(c4cccc(F)c4)N(C)C)CC3)C2)c(C)c1` (centres unmarked) [Example 251], the “μ (binding on the μ opioid receptor, % inhibition)” value is reported as 77%.
With `COc1cc(C)c(S(=O)(=O)N2CCC(OCC(=O)NCC3CCC(C(c4cccc(F)c4)N(C)C)CC3)C2)c(C)c1C` (centres unmarked) [Example 252] the “μ (binding on the μ opioid receptor, % inhibition)” value was 82%.
`COc1cc(C)c(S(=O)(=O)N2CCC(OCC(=O)NCCC3CCC(C(c4cccc(F)c4)N(C)C)CC3)C2)c(C)c1C` (centres unmarked) [Example 253] was tested, and the “μ (binding on the μ opioid receptor, % inhibition)” value was 76%.
For `COc1cc(C)c(S(=O)(=O)N(CCOCC(=O)NCCC2CCC(C(c3cccs3)N(C)C)CC2)Cc2ccccc2)c(C)c1C` (centres unmarked) [Example 254], the “μ (binding on the μ opioid receptor, % inhibition)” value was 83%.
`COc1ccc(S(=O)(=O)N2CCCCC2COCC(=O)NC2CCC(C(c3cccc(F)c3)N(C)C)CC2)cc1` (centres unmarked) [Example 255] was tested, and the “μ (binding on the μ opioid receptor, % inhibition)” value was 72%.
`CN(C)C(c1ccc(F)cc1)C1CCC(NC(=O)COC2CCCCC2N(C)S(=O)(=O)c2ccc(Cl)c(Cl)c2)CC1` (centres unmarked) [Example 256] was tested, and the “μ (binding on the μ opioid receptor, % inhibition)” value was 73%.
With `CN(C)C(c1cccc(F)c1)C1CCC(CNC(=O)COC2CCN(S(=O)(=O)c3ccc(Cl)cc3)C2)CC1` (centres unmarked) [Example 258] the “μ (binding on the μ opioid receptor, % inhibition)” value was 80%.
With `CN(C)C(c1cccc(F)c1)C1CCC(CCNC(=O)COC2CCN(S(=O)(=O)c3ccc(Cl)cc3Cl)C2)CC1` (centres unmarked) [Example 259] the “μ (binding on the μ opioid receptor, % inhibition)” value was 83%.
For `COc1ccc(S(=O)(=O)N2CCC(OCC(=O)NCC3CCC(C(c4ccc(Cl)cc4)N(C)C)CC3)C2)cc1OC` (centres unmarked) [Example 260], the “μ (binding on the μ opioid receptor, % inhibition)” value was 76%.
In the case of `COc1ccc(S(=O)(=O)N2CCCCC2COCC(=O)NC2CCC(C(c3cccs3)N(C)C)CC2)cc1OC` (centres unmarked) [Example 261], the “μ (binding on the μ opioid receptor, % inhibition)” value is reported as 72%.
